Read-outs that look alike come from different tables or passages of the source.
Legend:
Assay in all cases: biochemical
MYLK2 = MYLK2 (Homo sapiens, UniProt Q9H1R3)
LRRK2(G2019S) = LRRK2(G2019S) (Homo sapiens, UniProt Q5S007, G2019S)
MAP3K3 = MAP3K3 (Homo sapiens, UniProt Q99759)
MAP3K15 = MAP3K15 (Homo sapiens, UniProt Q6ZN16)
CAMKK2 = CAMKK2 (Homo sapiens, UniProt Q96RR4)
IRAK1 = IRAK1 (Homo sapiens, UniProt P51617)
EGFR(G719C) = EGFR(G719C) (Homo sapiens, UniProt P00533, G719C)
KIT(V559D) = KIT(V559D) (Homo sapiens, UniProt P10721, V559D)
BRAF = BRAF (Homo sapiens, UniProt P15056)
MAP4K5 = MAP4K5 (Homo sapiens, UniProt Q9Y4K4)
BRSK1 = BRSK1 (Homo sapiens, UniProt Q8TDC3)
ACVR2B = ACVR2B (Homo sapiens, UniProt Q13705)
FLT1 = FLT1 (Homo sapiens, UniProt P17948)
ABL2 = ABL2 (Homo sapiens, UniProt P42684)
BMX = BMX (Homo sapiens, UniProt P51813)
ASK2 = ASK2 (Homo sapiens, UniProt O95382)
MERTK = MERTK (Homo sapiens, UniProt Q12866)
MKNK2 = MKNK2 (Homo sapiens, UniProt Q9HBH9)
HIPK2 = HIPK2 (Homo sapiens, UniProt Q9H2X6)
MET(M1250T) = MET(M1250T) (Homo sapiens, UniProt P08581, M1250T)
FER = FER (Homo sapiens, UniProt P16591)
MAP3K1 = MAP3K1 (Homo sapiens, UniProt Q13233)
GRK7 = GRK7 (Homo sapiens, UniProt Q8WTQ7)
CDC2L5 = CDC2L5 (Homo sapiens, UniProt Q14004)
ASK1 = ASK1 (Homo sapiens, UniProt Q99683)
FGFR3(G697C) = FGFR3(G697C) (Homo sapiens, UniProt P22607, G697C)
HIPK4 = HIPK4 (Homo sapiens, UniProt Q8NE63)
MUSK = MUSK (Homo sapiens, UniProt O15146)
MAK = MAK (Homo sapiens, UniProt P20794)
[1] = read-out: CPT-1-70-1 (1uM) % control
[2] = read-out: HYJ-2-002-1 (1uM) % control

Sequence of MKNK2 (Q9HBH9 whole entry): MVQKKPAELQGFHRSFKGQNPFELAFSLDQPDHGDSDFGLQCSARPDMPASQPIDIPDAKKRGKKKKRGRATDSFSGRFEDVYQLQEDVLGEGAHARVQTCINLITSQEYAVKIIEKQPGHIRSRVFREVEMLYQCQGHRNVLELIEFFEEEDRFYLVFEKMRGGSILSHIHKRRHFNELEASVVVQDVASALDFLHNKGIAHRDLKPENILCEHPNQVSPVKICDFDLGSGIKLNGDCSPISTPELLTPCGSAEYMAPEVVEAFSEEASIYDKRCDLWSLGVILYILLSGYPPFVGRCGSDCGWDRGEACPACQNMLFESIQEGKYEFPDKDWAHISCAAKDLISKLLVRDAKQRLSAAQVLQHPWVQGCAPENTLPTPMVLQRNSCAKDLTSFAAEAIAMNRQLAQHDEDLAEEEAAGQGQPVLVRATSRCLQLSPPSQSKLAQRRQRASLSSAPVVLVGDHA
Sequence of FLT1 (P17948 whole entry): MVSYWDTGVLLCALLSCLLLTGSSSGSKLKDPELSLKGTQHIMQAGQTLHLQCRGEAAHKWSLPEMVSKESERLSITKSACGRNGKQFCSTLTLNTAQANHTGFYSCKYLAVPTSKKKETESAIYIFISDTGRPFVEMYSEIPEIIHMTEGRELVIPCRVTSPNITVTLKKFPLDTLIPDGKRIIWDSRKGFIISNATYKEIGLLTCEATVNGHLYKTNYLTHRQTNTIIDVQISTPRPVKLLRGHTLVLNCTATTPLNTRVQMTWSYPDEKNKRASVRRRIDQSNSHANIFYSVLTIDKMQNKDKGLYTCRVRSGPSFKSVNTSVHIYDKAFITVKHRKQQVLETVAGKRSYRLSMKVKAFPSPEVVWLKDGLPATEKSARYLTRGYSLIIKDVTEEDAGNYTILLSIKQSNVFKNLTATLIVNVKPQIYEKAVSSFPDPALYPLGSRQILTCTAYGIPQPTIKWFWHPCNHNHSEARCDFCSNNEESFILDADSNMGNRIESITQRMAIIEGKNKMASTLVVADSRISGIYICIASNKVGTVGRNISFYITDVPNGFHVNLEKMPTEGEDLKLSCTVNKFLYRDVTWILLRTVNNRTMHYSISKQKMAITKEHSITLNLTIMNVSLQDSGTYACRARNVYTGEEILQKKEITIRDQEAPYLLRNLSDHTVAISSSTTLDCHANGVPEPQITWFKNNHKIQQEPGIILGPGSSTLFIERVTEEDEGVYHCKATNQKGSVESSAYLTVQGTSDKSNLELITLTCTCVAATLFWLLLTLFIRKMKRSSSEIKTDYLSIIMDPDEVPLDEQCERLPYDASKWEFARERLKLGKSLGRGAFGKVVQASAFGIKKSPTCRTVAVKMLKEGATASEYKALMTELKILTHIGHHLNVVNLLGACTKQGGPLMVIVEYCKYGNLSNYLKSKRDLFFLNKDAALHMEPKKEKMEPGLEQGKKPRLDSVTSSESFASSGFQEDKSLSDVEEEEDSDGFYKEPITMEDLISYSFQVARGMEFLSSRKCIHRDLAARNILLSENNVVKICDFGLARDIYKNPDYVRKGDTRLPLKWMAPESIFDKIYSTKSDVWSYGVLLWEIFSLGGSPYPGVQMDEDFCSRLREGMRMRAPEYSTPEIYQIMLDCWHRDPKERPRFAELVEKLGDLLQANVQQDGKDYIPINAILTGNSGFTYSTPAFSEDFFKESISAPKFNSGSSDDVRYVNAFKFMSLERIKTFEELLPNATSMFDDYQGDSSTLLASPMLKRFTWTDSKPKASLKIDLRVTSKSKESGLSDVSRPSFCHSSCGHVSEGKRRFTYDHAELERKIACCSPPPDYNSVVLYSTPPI
Sequence of ACVR2B (Q13705 whole entry): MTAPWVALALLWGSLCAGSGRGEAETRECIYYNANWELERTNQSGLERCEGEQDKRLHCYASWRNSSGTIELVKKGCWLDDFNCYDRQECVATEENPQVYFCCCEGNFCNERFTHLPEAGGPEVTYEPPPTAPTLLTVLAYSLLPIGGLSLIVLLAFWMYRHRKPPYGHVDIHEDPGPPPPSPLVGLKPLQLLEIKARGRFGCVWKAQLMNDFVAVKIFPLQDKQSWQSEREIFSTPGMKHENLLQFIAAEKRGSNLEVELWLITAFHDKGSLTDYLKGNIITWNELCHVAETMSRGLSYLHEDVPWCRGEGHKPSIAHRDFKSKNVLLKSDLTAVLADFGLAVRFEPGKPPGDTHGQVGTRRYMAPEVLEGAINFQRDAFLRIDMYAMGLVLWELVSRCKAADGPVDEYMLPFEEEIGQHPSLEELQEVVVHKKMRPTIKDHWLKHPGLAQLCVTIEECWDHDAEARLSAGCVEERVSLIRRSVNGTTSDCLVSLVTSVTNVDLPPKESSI
Sequence of MUSK (O15146 whole entry): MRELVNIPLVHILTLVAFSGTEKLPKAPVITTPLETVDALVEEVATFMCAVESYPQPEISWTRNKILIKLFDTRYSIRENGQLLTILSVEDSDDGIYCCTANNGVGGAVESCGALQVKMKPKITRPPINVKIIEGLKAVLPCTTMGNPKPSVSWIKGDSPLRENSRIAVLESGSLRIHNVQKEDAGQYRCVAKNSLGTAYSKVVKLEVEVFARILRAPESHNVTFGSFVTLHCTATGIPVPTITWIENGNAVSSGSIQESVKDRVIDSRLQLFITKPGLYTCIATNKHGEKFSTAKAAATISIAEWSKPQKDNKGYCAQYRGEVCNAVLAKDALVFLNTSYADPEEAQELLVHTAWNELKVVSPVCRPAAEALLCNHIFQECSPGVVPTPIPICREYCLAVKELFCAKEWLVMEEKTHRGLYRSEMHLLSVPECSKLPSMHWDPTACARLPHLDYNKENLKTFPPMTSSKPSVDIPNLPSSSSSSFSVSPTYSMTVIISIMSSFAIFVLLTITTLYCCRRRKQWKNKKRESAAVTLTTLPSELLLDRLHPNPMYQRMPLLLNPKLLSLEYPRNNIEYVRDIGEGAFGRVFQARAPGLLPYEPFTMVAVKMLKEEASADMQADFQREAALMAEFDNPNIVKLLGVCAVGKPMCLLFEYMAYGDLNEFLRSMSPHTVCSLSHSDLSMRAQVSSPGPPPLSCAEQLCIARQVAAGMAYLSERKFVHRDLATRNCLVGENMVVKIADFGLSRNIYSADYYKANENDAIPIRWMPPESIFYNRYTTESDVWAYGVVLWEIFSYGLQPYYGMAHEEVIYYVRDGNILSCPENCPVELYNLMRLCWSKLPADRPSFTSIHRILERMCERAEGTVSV
Sequence of KIT(V559D) (P10721 whole entry V559D): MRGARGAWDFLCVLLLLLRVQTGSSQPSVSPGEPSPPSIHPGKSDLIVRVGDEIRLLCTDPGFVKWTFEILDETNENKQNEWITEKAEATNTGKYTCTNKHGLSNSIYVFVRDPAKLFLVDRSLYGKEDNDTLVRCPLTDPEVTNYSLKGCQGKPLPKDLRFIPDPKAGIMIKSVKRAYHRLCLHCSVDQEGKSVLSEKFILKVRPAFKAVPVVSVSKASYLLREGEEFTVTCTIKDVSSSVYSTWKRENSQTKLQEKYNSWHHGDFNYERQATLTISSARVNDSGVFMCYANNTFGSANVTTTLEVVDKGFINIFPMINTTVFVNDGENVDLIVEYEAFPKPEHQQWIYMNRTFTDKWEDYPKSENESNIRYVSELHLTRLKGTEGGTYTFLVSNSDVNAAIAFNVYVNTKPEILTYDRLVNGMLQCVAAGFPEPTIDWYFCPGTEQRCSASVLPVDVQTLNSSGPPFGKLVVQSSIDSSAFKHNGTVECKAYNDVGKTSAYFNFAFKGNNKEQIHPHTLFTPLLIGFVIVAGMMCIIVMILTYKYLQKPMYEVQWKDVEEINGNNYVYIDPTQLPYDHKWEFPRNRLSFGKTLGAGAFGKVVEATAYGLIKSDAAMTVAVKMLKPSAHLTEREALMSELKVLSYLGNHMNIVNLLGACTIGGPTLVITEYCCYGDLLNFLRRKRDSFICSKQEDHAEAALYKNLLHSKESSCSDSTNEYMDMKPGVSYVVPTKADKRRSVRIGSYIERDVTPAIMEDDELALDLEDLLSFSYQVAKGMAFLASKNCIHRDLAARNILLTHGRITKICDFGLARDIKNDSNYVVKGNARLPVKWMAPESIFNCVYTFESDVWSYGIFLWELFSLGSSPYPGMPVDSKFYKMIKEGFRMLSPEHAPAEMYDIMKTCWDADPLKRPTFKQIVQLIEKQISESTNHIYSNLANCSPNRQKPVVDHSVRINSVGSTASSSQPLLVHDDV
Sequence of MAP3K3 (Q99759 whole entry): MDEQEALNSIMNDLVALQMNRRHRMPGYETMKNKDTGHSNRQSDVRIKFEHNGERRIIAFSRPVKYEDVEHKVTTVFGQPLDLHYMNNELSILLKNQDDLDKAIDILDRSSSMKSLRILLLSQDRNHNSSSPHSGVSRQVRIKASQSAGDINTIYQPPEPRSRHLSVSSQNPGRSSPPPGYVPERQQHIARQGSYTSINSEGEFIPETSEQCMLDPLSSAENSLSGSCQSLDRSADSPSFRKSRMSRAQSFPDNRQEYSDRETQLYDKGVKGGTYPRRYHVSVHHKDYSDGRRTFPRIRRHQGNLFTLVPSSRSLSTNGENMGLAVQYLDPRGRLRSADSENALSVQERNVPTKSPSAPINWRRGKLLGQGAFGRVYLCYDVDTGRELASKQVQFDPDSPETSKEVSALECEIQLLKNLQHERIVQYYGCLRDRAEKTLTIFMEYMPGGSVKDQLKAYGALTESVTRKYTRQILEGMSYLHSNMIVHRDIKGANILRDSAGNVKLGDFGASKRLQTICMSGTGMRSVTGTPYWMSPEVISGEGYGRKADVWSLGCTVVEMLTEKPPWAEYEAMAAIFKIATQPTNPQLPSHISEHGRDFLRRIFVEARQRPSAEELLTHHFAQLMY

CN1CCN(c2ccc(Nc3nc(Oc4ccc(NC(=O)CCl)cc4)c4cc[nH]c4n3)cc2)CC1 [CPT1-70-1]
remaining activity at 1 µM (MYLK2; [1]): 86%
remaining activity at 1 µM (LRRK2(G2019S); [1]): 2.6%
remaining activity at 1 µM (MAP3K3; [1]): 16%
remaining activity at 1 µM (MAP3K15; [1]): 100%
remaining activity at 1 µM (CAMKK2; [1]): 68%
remaining activity at 1 µM (IRAK1; [1]): 53%
remaining activity at 1 µM (EGFR(G719C); [1]): 8%
remaining activity at 1 µM (KIT(V559D); [1]): 15%
remaining activity at 1 µM (BRAF; [1]): 87%
remaining activity at 1 µM (MAP4K5; [1]): 25%
remaining activity at 1 µM (BRSK1; [1]): 100%
remaining activity at 1 µM (ACVR2B; [1]): 100%
remaining activity at 1 µM (FLT1; [1]): 54%
remaining activity at 1 µM (ABL2; [1]): 60%
remaining activity at 1 µM (BMX; [1]): 9.2%
remaining activity at 1 µM (ASK2; [1]): 100%
remaining activity at 1 µM (MERTK; [1]): 70%
remaining activity at 1 µM (MKNK2; [1]): 100%
remaining activity at 1 µM (HIPK2; [1]): 90%
remaining activity at 1 µM (MET(M1250T); [1]): 39%
remaining activity at 1 µM (FER; [1]): 45%
remaining activity at 1 µM (MAP3K1; [1]): 100%
remaining activity at 1 µM (GRK7; [1]): 100%
remaining activity at 1 µM (CDC2L5; [1]): 91%
remaining activity at 1 µM (ASK1; [1]): 100%
remaining activity at 1 µM (FGFR3(G697C); [1]): 34%
remaining activity at 1 µM (HIPK4; [1]): 74%
remaining activity at 1 µM (MUSK; [1]): 8.8%
remaining activity at 1 µM (MAK; [1]): 100%

CCN1CCN(Cc2ccc(NC(=O)c3ccc(C)c(CCc4cnc5[nH]ccc5c4OC)c3)cc2C(F)(F)F)CC1 [HYJ-2-002-1]
remaining activity at 1 µM (MYLK2; [2]): 0.85%
remaining activity at 1 µM (LRRK2(G2019S); [2]): 83%
remaining activity at 1 µM (MAP3K3; [2]): 1.6%
remaining activity at 1 µM (MAP3K15; [2]): 100%
remaining activity at 1 µM (CAMKK2; [2]): 100%
remaining activity at 1 µM (IRAK1; [2]): 62%
remaining activity at 1 µM (EGFR(G719C); [2]): 0.75%
remaining activity at 1 µM (KIT(V559D); [2]): 0%
remaining activity at 1 µM (BRAF; [2]): 3.7%
remaining activity at 1 µM (MAP4K5; [2]): 16%
remaining activity at 1 µM (BRSK1; [2]): 97%
remaining activity at 1 µM (ACVR2B; [2]): 100%
remaining activity at 1 µM (FLT1; [2]): 10%
remaining activity at 1 µM (ABL2; [2]): 0%
remaining activity at 1 µM (BMX; [2]): 8.7%
remaining activity at 1 µM (ASK2; [2]): 100%
remaining activity at 1 µM (MERTK; [2]): 30%
remaining activity at 1 µM (MKNK2; [2]): 7%
remaining activity at 1 µM (HIPK2; [2]): 84%
remaining activity at 1 µM (MET(M1250T); [2]): 61%
remaining activity at 1 µM (FER; [2]): 56%
remaining activity at 1 µM (MAP3K1; [2]): 83%
remaining activity at 1 µM (GRK7; [2]): 100%
remaining activity at 1 µM (CDC2L5; [2]): 100%
remaining activity at 1 µM (ASK1; [2]): 96%
remaining activity at 1 µM (FGFR3(G697C); [2]): 29%
remaining activity at 1 µM (HIPK4; [2]): 2.6%
remaining activity at 1 µM (MUSK; [2]): 1.4%
remaining activity at 1 µM (MAK; [2]): 100%

— doi:10.1101/2020.06.11.145995v1 (biorxiv, 2020)
